From article PMC12797170, “Potent Competitive Inhibitors of Ecto-5′-nucleotidase (CD73) based on 6‑(Het)aryl-7-deazapurine Ribonucleoside 5′‑O‑Bisphosphonates” (ACS Pharmacology & Translational Science, 2025)
Values after ≈ are worked out from the molar mass of the structure shown. Where two headings read alike, the source gives them in different places.

Experiments:
[1] = target: T1, recombinant human CD73 (hCD73) (Homo sapiens, UniProt P21589); experiment: CD73 activity assay on recombinant human CD73; assay type: biochemical; details: ΔGexp = RT ln Ki
T1 sequence (P21589 27-574): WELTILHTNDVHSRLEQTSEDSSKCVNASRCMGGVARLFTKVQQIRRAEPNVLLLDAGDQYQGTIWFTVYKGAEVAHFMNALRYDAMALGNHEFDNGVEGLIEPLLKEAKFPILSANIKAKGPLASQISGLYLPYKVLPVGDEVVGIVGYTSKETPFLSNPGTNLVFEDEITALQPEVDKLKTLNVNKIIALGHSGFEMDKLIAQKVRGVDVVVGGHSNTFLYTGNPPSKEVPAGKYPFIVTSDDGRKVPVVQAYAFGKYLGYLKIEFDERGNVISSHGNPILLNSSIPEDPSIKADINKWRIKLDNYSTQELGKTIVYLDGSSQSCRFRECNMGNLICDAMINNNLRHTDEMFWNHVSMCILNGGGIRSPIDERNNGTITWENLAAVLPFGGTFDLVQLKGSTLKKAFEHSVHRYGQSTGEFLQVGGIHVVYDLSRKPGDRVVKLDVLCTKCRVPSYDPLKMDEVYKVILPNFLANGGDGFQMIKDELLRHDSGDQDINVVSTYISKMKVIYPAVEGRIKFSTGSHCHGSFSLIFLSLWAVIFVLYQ

[2] = In vivo pharmacokinetic study, intravenous; design: species or system male CD-1 mice; details: for half-life / t1/2 (half-life): footnote: t1/2 stability in plasma, text: half-life in mouse PK
Protocol: The pharmacokinetic study was performed by Bienta (Enamine Biology Services) using male CD-1 mice (3 animals, 9 weeks old, body weight ranging from 29.2 to 33.7 g) following intravenous administration. Levels of the test compound were determined by LC-MS/MS in blood plasma over time (seven sampling time points: 5, 15, 30, 60, 120, 240, and 480 min) after a single dose.
Animal treatment and samples preparation were conducted by the Animal Laboratory personnel at Enamine/Bienta.

[3] = Plasma protein binding, equilibrium dialysis, human plasma; assay type: in vitro ADME; details: undiluted plasma
[4] = Plasma protein binding, mouse plasma; assay type: in vitro ADME; details: mouse, plasma
[5] = Kinetic solubility in PBS; assay type: physicochemical; details: phosphate-buffered saline, pH 7.4, aqueous buffer, kinetic from dmso stock
Summary of the method: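 DMSO stocks diluted into PBS pH 7.4 to 100 μM and shaken 2 h at room temperature in duplicate, then filtered by centrifugation. Filtrates diluted 1:99 in 50% acetonitrile. Quantified by Echo-MS against calibration standards spanning 0.05–4 μM.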

[6] = Microsomal stability assay, human liver microsomes; assay type: in vitro ADME; details: for Mics (hu) comp remaining 60 min: 10 μM; for microsomal CLint at 10 µM: pooled liver microsomes, pH 7.4, read-out: Mics (hu) CLint
[7] = Microsomal stability assay, mouse liver microsomes; assay type: in vitro ADME; details: for Mics (m) comp remaining 60 min: 10 μM; for microsomal CLint at 10 µM: pooled liver microsomes, pH 7.4, read-out: Mics (m) CLint
[8] = tested on: CCRF-CEM; experiment: In vitro cytotoxic activity; assay type: cell-based; details: Homo sapiens
Protocol: (§1) All the compounds were also tested for their in vitro cytotoxic activity on a small panel of four cancer cell lines (CCRF-CEM, HepG2, HeLa S3, HL-60) and nonmalignant human dermal fibroblasts (NHDF).

[9] = tested on: HL-60; experiment: In vitro cytotoxic activity; assay type: cell-based; details: Homo sapiens
Protocol: as §1

[10] = tested on: HeLa S3; experiment: In vitro cytotoxic activity; assay type: cell-based; details: Homo sapiens
Protocol: as §1

[11] = tested on: HepG2; experiment: In vitro cytotoxic activity; assay type: cell-based; details: Homo sapiens
Protocol: as §1

[12] = tested on: nonmalignant human dermal fibroblasts (NHDF); experiment: In vitro cytotoxic activity; assay type: cell-based
Protocol: as §1

[13] = in vitro; details: human, plasma
[14] = in vitro; details: mouse, plasma
[15] = male, CD-1, mouse, plasma, iv, 1 mg/kg, intravenous
[16] = mouse, plasma, 1 mg/kg, male CD-1 mice, intravenous, single dose, read-out: Cl (obs), observed clearance
[17] = human plasma protein binding, read-out: PPB (hu) (converted)
[18] = mouse plasma protein binding, read-out: PPB (m) (converted)
[19] = in vivo PK in mice, unit not given
[20] = Tables 1 and 3, human plasma as printed in footnote, read-out: fup, fraction unbound in human plasma

SMILES	dG_exp, experimental binding free energy [1]	half-life [2, 15]	clearance [2, 16]	fraction unbound at 4 h, 100 µM [3, 17]	fraction unbound at 4 h, 100 µM [4, 18]	solubility at 2 h [5]	Mics (hu) comp remaining 60 min [6]	microsomal CLint at 10 µM [6]	Mics (m) comp remaining 60 min [7]	microsomal CLint at 10 µM [7]	IC50 [8]	IC50 [9]	IC50 [10]	IC50 [11]	IC50 [12]	half-life at 10 µM [13]	half-life at 10 µM [14]	clearance [2, 19]	fraction unbound at 4 h, 100 µM [3, 20]	also measured
O=P(O)(O)CP(=O)(O)OC[C@H]1O[C@@H](n2ccc3c(-c4ccc5ccccc5c4)nc(Cl)nc32)[C@H](O)[C@@H]1O [7B.7]	–15.9 kcal/mol	0.122 h	8.3 mL/min/kg	0.033	0.112	84 µM (≈ 47.9 µg/mL)	111%	< 1 µL/min/mg	106%	< 1 µL/min/mg	> 10 µM	> 10 µM	> 10 µM	> 10 µM	> 10 µM	> 2 h	> 2 h			fraction unbound at 4 h, 100 µM ([4]; Tables 2 and 4, mouse plasma, read-out: fup, fraction unbound in mouse plasma): 0.11
O=P(O)(O)CP(=O)(O)OC[C@H]1O[C@@H](n2ccc3c(-c4ccsc4)ncnc32)[C@H](O)[C@@H]1O [4A.4]	–13.2 kcal/mol	0.0833 h	12 mL/min/kg	0.125	0.726	90 µM (≈ 44.2 µg/mL)					9.7 µM	3.4 µM	> 10 µM	> 10 µM	> 10 µM	> 2 h	> 2 h	high clearance	0.82	t1/2 (half-life) ([2]; intravenous): 4.5 min
O=P(O)(O)CP(=O)(O)OC[C@H]1O[C@@H](n2ccc3c(-c4cc5ccccc5o4)ncnc32)[C@H](O)[C@@H]1O [4A.8]	–13.5 kcal/mol	0.15 h	11 mL/min/kg	0.019	0.371	98 µM (≈ 51.5 µg/mL)					> 10 µM	> 10 µM	> 10 µM	> 10 µM	> 10 µM	> 2 h	> 2 h	high clearance	0.37	t1/2 (half-life) ([2]; intravenous): 8.5 min
O=P(O)(O)CP(=O)(O)OC[C@H]1O[C@@H](n2ccc3c(-c4cccc5c4oc4ccccc45)ncnc32)[C@H](O)[C@@H]1O [4A.10]	–12.9 kcal/mol	2.38 h	3.5 mL/min/kg	0.004	0.135	> 100 µM					> 10 µM	9.5 µM	> 10 µM	> 10 µM	> 10 µM	> 2 h	> 2 h	moderate clearance	0.13	
O=P(O)(O)CP(=O)(O)OC[C@H]1O[C@@H](n2ccc3c(-c4cccc5ccccc45)ncnc32)[C@H](O)[C@@H]1O [4A.6]	–14.4 kcal/mol	2.83 h		0.086	0.626	62 µM (≈ 33.2 µg/mL)					> 10 µM	> 10 µM	> 10 µM	> 10 µM	> 10 µM	> 2 h	> 2 h		0.63	clearance ([2]; male, CD-1, mouse, plasma, iv, 1 mg/kg, in vivo PK in mice, unit inferred, read-out: clearance): 1.4 mL/min/kg
O=P(O)(O)CP(=O)(O)OC[C@H]1O[C@@H](n2ccc3c(-c4ccco4)nc(F)nc32)[C@H](O)[C@@H]1O [14D.1, [(5-{[2-Fluoro-4-(furan-2-yl)-7H-pyrrolo[2,3-d]pyrimidin-7-yl]-β-D-ribofuranosyl}oxy)phosphonomethyl]phosphonic Acid]	–13.4 kcal/mol			0.045	0.664	80 µM (≈ 39.5 µg/mL)	103%	< 1 µL/min/mg	96%	1 µL/min/mg	> 10 µM	> 10 µM	> 10 µM	> 10 µM	> 10 µM	> 2 h	> 2 h			
COc1nc(-c2ccc3ccccc3c2)c2ccn([C@@H]3O[C@H](COP(=O)(O)CP(=O)(O)O)[C@@H](O)[C@H]3O)c2n1 [21F.7, [(5-{[2-Methoxy-4-(naphthalen-2-yl)-7H-pyrrolo[2,3-d]pyrimidin-7-yl]-β-D-ribofuranosyl}oxy)phosphonomethyl]phosphonic Acid]	–13.4 kcal/mol			≤ 0.01	0.136	79 µM (≈ 44.7 µg/mL)	104%	< 1 µL/min/mg		< 1 µL/min/mg	> 10 µM	> 10 µM	> 10 µM	> 10 µM	> 10 µM	> 2 h	> 2 h		0.14	
O=P(O)(O)CP(=O)(O)OC[C@H]1O[C@@H](n2ccc3c(-c4cccc5ccoc45)ncnc32)[C@H](O)[C@@H]1O [4A.15]	–13.4 kcal/mol			0.036	0.542	76 µM (≈ 39.9 µg/mL)	118%	< 1 µL/min/mg	102%	< 1 µL/min/mg	> 10 µM	8.6 µM	> 10 µM	8.7 µM	5.7 µM	> 2 h	> 2 h			
